The assay concerns N27 rat dopaminergic neural cells. The experiment in a line: MTT assay in N27 rat dopaminergic neural cells: inhibition of RSL3-induced cell death (ferroptosis). Type of assay: cell-based. The settings on record: Rattus norvegicus, ferroptosis induced by 0.5 μM RSL3, 24 hours, viability by MTT. The method, then:
MTT Assay in N27 Rat Dopaminergic Neural Cells
N27 rat dopaminergic neural cells (Millipore, SCC048) were cultured in RPMI-1640 media (Wisent, 350-000) supplemented with 1×GlutaMAX (Gibco, 35050-061), 10% FBS (embryonic stem cell qualified; Wisent, 920-040), and 1× Penicillin-Streptomycin (Wisent, 450-201). Cells were grown in humidified tissue culture incubator at 37° C. with 5% CO2, for up to 10 passages. To evaluate the ability of test compounds to inhibit RSL3-induced cell death, N27 cells were seeded in clear 96-well tissue culture plates (Sarstedt, 83.3924) at a density of 15,000 cells/well. On the next day, the medium was changed to fresh complete RPMI-1640. Eight-point dilution series of test compounds were added to the cells. Then, ferroptosis was induced by addition of 0.5 μM RSL3 (vehicle-treated cells served as control). Ferrostatin-1 (Fer-1) was included in each assay as control inhibitor of ferroptosis. Plates were incubated for 24 hours at 37° C. in a tissue culture incubator, then cell viability was determined by MTT assay. Briefly, Thiazolyl Blue Tetrazolium Bromide [3-(4,5-dimethylthiazol-2-yl)-2,5-diphenyltetrazolium bromide or “MTT” ] (Sigma) stock solution (5 mg/mL in PBS, sterilized by filtration) was diluted 1:1 with complete growth medium, and added on the cells to a final concentration of 0.5 mg/mL. Cells were incubated with MTT for 4 hours at 37° C., protected from light, in a humidified, 5% CO2 atmosphere. Medium was then completely removed from the wells by gentle aspiration and converted MTT formazan crystals were dissolved in 150 μL of DMSO. Absorbance of converted dye was measured at 595 nm with background subtraction at 690 nm using the BioTek Cytation5 Microplate Reader. Blank reading (absorbance from wells containing media and vehicle only, no cells) was removed from all sample wells. Viability was calculated as a percentage of control cells (vehicle-treated cells were set as 100% viability). Dose-response curves were drawn and IC50 values were calculated using GraphPad Prism software, version 7.

Bounds are passed on as bounds.

In general, IC50 refers to the point on the concentration scale where inhibition reaches its midpoint. Low readings indicate greater potency in that assay, high ones weaker potency in that assay.

Compound `CCC/C=C/c1nc2c(c(NC3CCCC3)n1)NCCC2` [Compound B-388, N-cyclopentyl-2-[(E)-pent-1-enyl]-5,6,7,8-tetrahydropyrido [3,2-d]pyrimidin-4-amine] had an IC50 (N27, 24 h) of 40 nM.
Still for that read-out and setting: the result for `CCCCC(=O)c1ccc2c(c1)C=CC(C)(C)N2` [Compound B-100, 1-(2,2-dimethyl-1,2-dihydroquinolin-6-yl)pentan-1-one] reads 7440 nM; that for `CCC/C=C/c1nc(NC2CCCC2)c2c(n1)OCCN2` [Compound B-710, N-cyclopentyl-2-[(E)-pent-1-enyl]-6,7-dihydro-5H-pyrimido[4,5-b][1,4]oxazin-4-amine], 22 nM.
For the compound `COCCOc1nc2c(c(NC3CCCC3)n1)NCCC2` [Compound B-495, N-cyclopentyl-2-(2-methoxyethoxy)-5,6,7,8-tetrahydropyrido[3,2-d]pyrimidin-4-amine], the midpoint of inhibition (N27, 24 h), the IC50, lay at 160 nM.
As for `CCCCC(=O)c1cc2c3c(c1)nc(C(F)(F)F)n3CCC2` [Compound B-099, 1-[2-(trifluoromethyl)-1,3-diazatricyclo[6.3.1.04,12]dodeca-2,4 (12),5,7-tetraen-6-yl]pentan-1-one], the IC50 (N27, 24 h) was above 3000 nM.
Regarding `CCCCCc1nc(NC2CCCC2)c2c(n1)OCCN2` [Compound B-711, N-cyclopentyl-2-pentyl-5H,6H,7H-pyrimido[4,5-b][1,4]oxazin-4-amine], the IC50 came to 41 nM.
For the setting “N27, 24 h”, `CCCCC(O)c1cc2c(c(NC(C)(C)C)n1)NCC(C(F)(F)F)C2` (stereo not shown) [Compound R-812, 1-[8-(tert-butylamino)-3-(trifluoromethyl)-1,2,3,4-tetrahydro-1,7-naphthyridin-6-yl]pentan-1-ol] gave an IC50 of 40 nM.
The compound `CCCCC(=O)c1cc2c(c(NC3CCCC3)c1)OCCC2` [Compound B-035, 1-[8-(cyclopentylamino)-3,4-dihydro-2H-1-benzopyran-6-yl]pentan-1-one] registered an IC50 (N27, 24 h) above 3000 nM.
In turn, `CC1(Nc2nc(-c3ccc(F)cc3)ccc2NC2CCC2)CCOC1` (stereo not shown) [Compound P-54, N^3-cyclobutyl-6-(4-fluorophenyl)-N^2-(3-methyltetrahydrofuran-3-yl)pyridine-2,3-diamine] registered an IC50 (N27, 24 h) of 3 nM.
Still for that read-out and setting: the result for `CCC(C)Nc1cnc(-c2ccc(C)cc2)nc1NC1CCCC1` (stereo not shown) [Compound F-69, N^4-cyclopentyl-2-(p-tolyl)-N^5-sec-butyl-pyrimidine-4,5-diamine] reads 28 nM.
The compound `CCCCC(=O)c1cc2c(c(Nc3ccccn3)c1)NCCC2` [Compound B-249, 1-{8-[(pyridin-2-yl)amino]-1,2,3,4-tetrahydroquinolin-6-yl}pentan-1-one] came in with an IC50 (N27, 24 h) of 343 nM.
Consider `CCCCC(OC)c1cc2c(c(Nc3ccccn3)c1)NCCC2` (stereo not shown) [Compound B-397, 6-(1-methoxypentyl)-N-(2-pyridyl)-1,2,3,4-tetrahydroquinolin-8-amine], for which, for the setting “N27, 24 h”, the IC50 came out at 70 nM.
As for `CCCCCc1nc(NC2CCCC2)c2c(n1)SCCN2` [Compound B-601, N-cyclopentyl-2-pentyl-5H,6H,7H-pyrimido[4,5-b][1,4]thiazin-4-amine], where the note is “N27, 24 h”, it took 3 nM to reach half-maximal inhibition (IC50).
Compound `CCCCC(=O)c1cc2c(c(NC(C)(C)C)n1)NCC(C(F)(F)F)C2` (stereo not shown) [Compound R-830] had an IC50 (N27, 24 h) of 36 nM.
On to `CCCCC(=O)c1nc2c(c(N3CCCC3)n1)NCCC2` [Compound A-18, 1-(4-pyrrolidin-1-yl-5,6,7,8-tetrahydropyrido[3,2-d]pyrimidin-2-yl)pentan-1-one], for which the IC50 (N27, 24 h) amounted to 217 nM.
As for `CC(C)(C)C(=O)c1nc2c(c(NC3CCCC3)n1)NCCC2` [Compound A-35, 1-[4-(cyclopentylamino)-5,6,7,8-tetrahydropyrido[3,2-d]pyrimidin-2-yl]-2,2-dimethyl-propan-1-one], the IC50 (N27, 24 h) was determined as 248 nM.
As to `c1ccc(-c2cn(-c3nc4c(c(NC5CCCC5)n3)NCCC4)nn2)cc1` [Compound A-31, N-cyclopentyl-2-(4-phenyltriazol-1-yl)-5,6,7,8-tetrahydropyrido[3,2-d]pyrimidin-4-amine], where the note is “N27, 24 h”, 21 nM corresponded to half-maximal inhibition (IC50).
Under “N27, 24 h”, `CCOC(=O)c1cc2c(c(NC3CCCC3)c1)NC(=O)CC2` [Compound B-148] returned an IC50 of 1670 nM.
Regarding `CCCCC(=O)c1cc2c(c(NC3CCCC3)n1)NCCC2` [Compound B-647, 1-[8-(cyclopentylamino)-1,2,3,4-tetrahydro-1,7-naphthyridin-6-yl]pentan-1-one], the IC50 (N27, 24 h) came to 8 nM.
Same read-out and setting: the result for `CCCCOc1nc2c(c(NC3CCCC3)n1)NCCC2` [Compound B-323, 2-Butoxy-N-cyclopentyl-5,6,7,8-tetrahydropyrido[3,2-d]pyrimidin-4-amine] reads 43 nM; that for `CCCCCc1nc2c(c(NC3CCCC3)n1)NC(C)(C)CC2` [Compound B-917, N-cyclopentyl-6,6-dimethyl-2-pentyl-5H,6H,7H,8H-pyrido[3,2-d]pyrimidin-4-amine], above 3000 nM; that for `CCC(C)Nc1cnc(-c2cccnc2)nc1NC1CCCC1` (stereo not shown) [Compound F-78, N^4-cyclopentyl-2-(3-pyridyl)-N^5-sec-butyl-pyrimidine-4,5-diamine], 89 nM.
For `CCCCC(=O)c1cc(N)c2c(c1)CCCN2` [Compound B-059, 1-(8-amino-1,2,3,4-tetrahydroquinolin-6-yl)pentan-1-one], half-maximal inhibition (N27, 24 h) (IC50) was put at 149 nM.
With `CCCCC(=O)c1nc2c(c(Nc3ccccn3)n1)NCCC2` [Compound G-65, 1-[4-(2-pyridylamino)-5,6,7,8-tetrahydropyrido[3,2-d]pyrimidin-2-yl]pentan-1-one], the IC50 (N27, 24 h, cell unit uM) was above 10000 nM.
With `CCCCC(=O)c1cc(N)c2c(c1)CCCN2S(=O)(=O)CC(C)C` [Compound B-060], the IC50 (N27, 24 h) stood at 4020 nM.
As for `CCCCC(=O)c1cc(F)c2c(c1)CCCN2` [Compound B-132], the IC50 (N27, 24 h) was above 3000 nM.
As for `CC#Cc1nc2c(c(NC3CCCC3)n1)NCCC2` [Compound A-12, N-cyclopentyl-2-prop-1-ynyl-5,6,7,8-tetrahydropyrido[3,2-d]pyrimidin-4-amine], the IC50 (N27, 24 h) was determined as 109 nM.
Where the note is “N27, 24 h”, `C1CNc2c(nc(C3CCCC3)nc2NC2CCCC2)C1` [Compound B-456, N,2-Dicyclopentyl-5,6,7,8-tetrahydropyrido[3,2-d]pyrimidin-4-amine] came in with an IC50 of 153 nM.
In turn, `CCCCC(=O)c1cc2c(c(N3CCCC3=O)c1)NCCC2` [Compound Q-979, 1-(6-pentanoyl-1,2,3,4-tetrahydroquinolin-8-yl)pyrrolidin-2-one] had an IC50 (N27, 24 h) of 1150 nM.
Under “N27, 24 h”, `CC1(Nc2nc(-c3ccncc3)nc3c2NCCC3)CCOC1` (stereo not shown) [Compound P-71, N-(3-methyltetrahydrofuran-3-yl)-2-(4-pyridyl)-5,6,7,8-tetrahydropyrido[3,2-d]pyrimidin-4-amine] returned an IC50 of 463 nM.
`c1nc2c(c(NC3CCCC3)n1)NCCC2` [Compound C-84, N-cyclopentyl-5,6,7,8-tetrahydropyrido[3,2-d]pyrimidin-4-amine]: the IC50 (N27, 24 h) turned out to be 646 nM.
Same read-out and setting: the result for `CCC(C)Nc1cnc(-c2cncnc2)nc1NC1CCCC1` (stereo not shown) [Compound F-81, N^4-cyclopentyl-2-pyrimidin-5-yl-N^5-sec-butyl-pyrimidine-4,5-diamine] reads 121 nM; that for `Clc1nc2c(c(NC3CCCC3)n1)NCCC2` [Compound J-84], 273 nM.
Still for that read-out and setting: the result for `Cc1ccc(-c2ccc(NC3COC3)c(NC3CCCC3)n2)cc1` [Compound H-81, N^2-cyclopentyl-N^3-(oxetan-3-yl)-6-(p-tolyl)pyridine-2,3-diamine] reads 5 nM; that for `OC(c1ccc(F)cc1)c1nc2c(c(NC3CCCC3)n1)NCCC2` (stereo not shown) [Compound A-11, [4-(cyclopentylamino)-5,6,7,8-tetrahydropyrido[3,2-d]pyrimidin-2-yl]-(4-fluorophenyl)methanol], 36 nM.
Turning to `CCCCC(O)c1nc2c(c(Nc3ccccn3)n1)NCCC2` (stereo not shown) [Compound G-63, 1-[4-(2-pyridylamino)-5,6,7,8-tetrahydropyrido[3,2-d]pyrimidin-2-yl]pentan-1-ol], the IC50 (N27, 24 h, cell unit uM) is above 10000 nM.
Same read-out and setting: the result for `CNC(=O)c1nc(-c2ccc(C)cc2)nc2c1NC(C)(C)N2C1CCCC1` [Compound K-34] reads above 10000 nM.
Where the note is “N27, 24 h”, `CCC(C)Nc1ccc(-c2ccc(C)cc2)nc1NC(C)(C)C` [Compound L-02, N^2-tert-butyl-6-(p-tolyl)-N^3-sec-butyl-pyridine-2,3-diamine] showed an IC50 of 5 nM.
The same measure, in the same setting: the result for `CCCCC(=O)c1cc(N)c2c(c1)CCCN2Cc1ccccc1` [Compound B-133] reads 2900 nM.
For the setting “N27, 24 h”, `O=C(c1ccccc1)c1nc2c(c(NC3CCCC3)n1)NCCC2` [Compound A-16, [4-(cyclopentylamino)-5,6,7,8-tetrahydropyrido[3,2-d]pyrimidin-2-yl]-phenyl-methanone] gave an IC50 of 285 nM.

The record behind these values is US20220144826A1, “Heteroaromatic and Heterobicyclic Aromatic Derivatives for the Treatment of Ferroptosis-Related Disorders” (COLLABORATIVE MEDICINAL DEVELOPMENT, LLC, priority 2019, published 2022).
